Measurements reported in the OligoGym collection.
After the bases stand the sugars from the 5' end (letter, count) and the backbone: PS all phosphorothioate, else s phosphorothioate and o phosphodiester by linkage. Methylation of C is not given here. e = 2'-O-(2-methoxyethyl) (MOE); k = constrained ethyl (cEt); d = 2'-deoxy (DNA); m = 2'-O-methyl

Biological target: HSD17B13
Settings: ASO, HepaRG

Row | Sequence | target mRNA inhibition (1 µM) [%] | further results
1 | ACTGCTGCTAGTGCCA (sugars kkdddddddddkekek, PS) | 39 | 
2 | ACTTGAACAGTCTTAA (sugars k3 d1 m1 d8 k3, PS) | 29 | 
3 | ACTTGAACAGTCTTAA (sugars k3 d9 k3 e1, PS) | 60 | 
4 | ACTTGAACAGTCTTAA (sugars kkdddddddddkekek, PS) | 60 | 
5 | ACTTGATCTCTTAGCT (sugars k3 d10 k3, PS) | 59 | 
6 | ACTTTTAGTCAGGTAG (sugars k3 d10 k3, PS) | 26 | 
7 | ACTTTTGGTGGACTTC (sugars k3 d10 k3, PS) | 0 | 
8 | AGAAATTTGTGAACCT (sugars k3 d10 k3, PS) | 39 | 
9 | AGAAGGACTTTCATAG (sugars k3 d10 k3, PS) | 46 | 
10 | AGAATTAAGGGCTATA (sugars k3 d10 k3, PS) | 45 | 
11 | AGACAATGACATAGAC (sugars k3 d10 k3, PS) | 14 | 
12 | AGACAGACTGTTGAGC (sugars k3 d10 k3, PS) | 74 | 
13 | AGACCAAGTAGCTTAC (sugars k3 d10 k3, PS) | 42 | 
14 | AGACTTTGAGACTCTT (sugars k3 d9 k3 e1, PS) | 41 | 
15 | AGACTTTGAGACTCTT (sugars kkdddddddddkekek, PS) | 55 | 
16 | AGACUTTGAGACTCTT (sugars k3 d1 m1 d8 k3, PS) | 48 | 
17 | AGAGAGTAATCAGTTT (sugars k3 d9 k3 e1, PS) | 51 | 
18 | AGAGAGTAATCAGTTT (sugars k3 d10 k3, PS) | 39 | 
19 | AGAGCATAAGTTACCA (sugars k3 d10 k3, PS) | 88 | target mRNA inhibition (0.02 µM): 4%; target mRNA inhibition (0.078 µM): 11%; target mRNA inhibition (0.313 µM): 50%; target mRNA inhibition (1.25 µM): 78%; target mRNA inhibition (5 µM): 79%
20 | AGAGGCTAGGGAAATC (sugars k3 d9 k3 e1, PS) | 68 | 
21 | AGAGGGTCCACTTTTG (sugars k3 d10 k3, PS) | 34 | 
22 | AGAGTATTTCCTCTGG (sugars k3 d10 k3, PS) | 32 | 

Row | Sequence | target mRNA inhibition (1 µM) [%] | further results
23 | AGAGTCGGTCACCTTT (sugars k3 d9 k3 e1, PS) | 66 | 
24 | AGAGTTGCACCGTTTT (sugars kkdddddddddkekek, PS) | 80 | target mRNA inhibition (0.02 µM): 6%; target mRNA inhibition (0.078 µM): 18%; target mRNA inhibition (0.313 µM): 38%; target mRNA inhibition (1.25 µM): 63%; target mRNA inhibition (5 µM): 81%
25 | AGATCCCGTTCTTGCC (sugars k3 d10 k3, PS) | 68 | target mRNA inhibition (0.02 µM): 0%; target mRNA inhibition (0.078 µM): 20%; target mRNA inhibition (0.313 µM): 47%; target mRNA inhibition (1.25 µM): 72%; target mRNA inhibition (5 µM): 76%
26 | AGATGTACACTGACAA (sugars k3 d10 k3, PS) | 66 | 
27 | AGCAAAGTTTGGGCAG (sugars k3 d10 k3, PS) | 44 | 
28 | AGCATAAGTTACCAGA (sugars k3 d10 k3, PS) | 87 | target mRNA inhibition (0.02 µM): 14%; target mRNA inhibition (0.078 µM): 31%; target mRNA inhibition (0.313 µM): 49%; target mRNA inhibition (1.25 µM): 73%; target mRNA inhibition (5 µM): 92%
29 | AGCATTATTCACCACG (sugars k3 d10 k3, PS) | 53 | 
30 | AGCCACTGTGACGATG (sugars k3 d10 k3, PS) | 10 | 
31 | AGCCAGTACAGTTCCT (sugars k3 d10 k3, PS) | 58 | 
32 | AGCCAGTACAGTTCCT (sugars kkdddddddddkekek, PS) | 49 | 
33 | AGCCTTAGAGTGAATC (sugars k3 d10 k3, PS) | 74 | target mRNA inhibition (0.02 µM): 35%; target mRNA inhibition (0.078 µM): 54%; target mRNA inhibition (0.313 µM): 84%; target mRNA inhibition (1.25 µM): 94%; target mRNA inhibition (5 µM): 89%
34 | AGCTAGATACTCAATT (sugars k3 d10 k3, PS) | 2 | 
35 | AGCTATTGTCTTTGAT (sugars k3 d10 k3, PS) | 39 | 
36 | AGCTGAGAGTTCTACA (sugars k3 d10 k3, PS) | 67 | 
37 | AGCTGGTAAAGGTAAG (sugars k3 d10 k3, PS) | 55 | 
38 | AGCTGTGCACTCATTC (sugars k3 d10 k3, PS) | 57 | 
39 | AGGAAGTGATCCATAT (sugars k3 d10 k3, PS) | 60 | 
40 | AGGATGATGTTCATGG (sugars k3 d10 k3, PS) | 88 | target mRNA inhibition (0.02 µM): 25%; target mRNA inhibition (0.078 µM): 27%; target mRNA inhibition (0.313 µM): 71%; target mRNA inhibition (1.25 µM): 80%; target mRNA inhibition (5 µM): 71%
41 | AGGATGTTGACCTCAA (sugars k3 d10 k3, PS) | 4 | 
42 | AGGAUAGTCCATGCAA (sugars k3 d1 m1 d8 k3, PS) | 55 | 
43 | AGGCAGTTGAAGTTGA (sugars k3 d10 k3, PS) | 47 | 
44 | AGGCTGTAAGAGTCAG (sugars k3 d9 k3 e1, PS) | 49 | 

Row | Sequence | target mRNA inhibition (1 µM) [%] | further results
45 | AGGCUGTAAGAGTCAG (sugars k3 d1 m1 d8 k3, PS) | 52 | 
46 | AGGGAAGATCTGGCTG (sugars k3 d10 k3, PS) | 4 | 
47 | AGGTAAGGAATCCCTT (sugars k3 d10 k3, PS) | 0 | 
48 | AGGTTGAGATAAAGCT (sugars k3 d9 k3 e1, PS) | 71 | target mRNA inhibition (0.02 µM): 0%; target mRNA inhibition (0.078 µM): 23%; target mRNA inhibition (0.313 µM): 46%; target mRNA inhibition (1.25 µM): 64%; target mRNA inhibition (5 µM): 77%
49 | AGGTTGAGATAAAGCT (sugars k3 d10 k3, PS) | 74 | target mRNA inhibition (0.02 µM): 20%; target mRNA inhibition (0.078 µM): 27%; target mRNA inhibition (0.313 µM): 40%; target mRNA inhibition (1.25 µM): 69%; target mRNA inhibition (5 µM): 86%
50 | AGGTTGAGATAAAGCT (sugars kkdddddddddkekek, PS) | 60 | 
51 | AGTAAACGACTCTGTA (sugars k3 d10 k3, PS) | 33 | 
52 | AGTAAATGATGGCAGG (sugars k3 d10 k3, PS) | 40 | 
53 | AGTAATCACAAGTAAG (sugars k3 d10 k3, PS) | 54 | 
54 | AGTACAGTTCCTTTTC (sugars k3 d1 m1 d8 k3, PS) | 56 | 
55 | AGTAGATTTGGTAGAG (sugars k3 d10 k3, PS) | 67 | 
56 | AGTAGTGTAAGCTGAG (sugars k3 d1 m1 d8 k3, PS) | 68 | 
57 | AGTAGTGTAAGCTGAG (sugars kkdddddddddkekek, PS) | 52 | 
58 | AGTATAGTTATCTTCT (sugars k3 d10 k3, PS) | 67 | 
59 | AGTATTCCATCTATCA (sugars k3 d10 k3, PS) | 62 | 
60 | AGTATTTGGGTGTTCT (sugars k3 d10 k3, PS) | 17 | 
61 | AGTCAGTATCCCCTCA (sugars k3 d10 k3, PS) | 82 | target mRNA inhibition (0.02 µM): 6%; target mRNA inhibition (0.078 µM): 14%; target mRNA inhibition (0.313 µM): 32%; target mRNA inhibition (1.25 µM): 70%; target mRNA inhibition (5 µM): 74%
62 | AGTCATTTTTAATACG (sugars k3 d10 k3, PS) | 13 | 
63 | AGTCCATGCAAAAGCA (sugars k3 d1 m1 d8 k3, PS) | 73 | target mRNA inhibition (0.02 µM): 0%; target mRNA inhibition (0.078 µM): 21%; target mRNA inhibition (0.313 µM): 20%; target mRNA inhibition (1.25 µM): 65%; target mRNA inhibition (5 µM): 75%
64 | AGTCCTTGTGTAGTCC (sugars k3 d10 k3, PS) | 64 | 
65 | AGTCGGTCACCTTTCA (sugars k3 d9 k3 e1, PS) | 75 | target mRNA inhibition (0.02 µM): 1%; target mRNA inhibition (0.078 µM): 17%; target mRNA inhibition (0.313 µM): 37%; target mRNA inhibition (1.25 µM): 66%; target mRNA inhibition (5 µM): 62%
66 | AGTCGGTCACCTTTCA (sugars k3 d10 k3, PS) | 66 | 

Row | Sequence | target mRNA inhibition (1 µM) [%] | further results
67 | AGTCTACCACATACGC (sugars k3 d10 k3, PS) | 65 | 
68 | AGTCTTGATGTAGTGG (sugars k3 d10 k3, PS) | 63 | 
69 | AGTGAAATCTTGTGTA (sugars k3 d10 k3, PS) | 41 | 
70 | AGTGAATCATTCAGTA (sugars k3 d10 k3, PS) | 86 | target mRNA inhibition (0.02 µM): 49%; target mRNA inhibition (0.078 µM): 54%; target mRNA inhibition (0.313 µM): 80%; target mRNA inhibition (1.25 µM): 93%; target mRNA inhibition (5 µM): 94%
71 | AGTGCATCTTAAGATA (sugars k3 d10 k3, PS) | 57 | 
72 | AGTGCTTAGTTCATTG (sugars k3 d10 k3, PS) | 84 | target mRNA inhibition (0.02 µM): 0%; target mRNA inhibition (0.078 µM): 0%; target mRNA inhibition (0.313 µM): 31%; target mRNA inhibition (1.25 µM): 58%; target mRNA inhibition (5 µM): 84%
73 | AGTGCTTTTGTGATCC (sugars k3 d10 k3, PS) | 25 | 
74 | AGTGGGAGTCGGATTA (sugars k3 d10 k3, PS) | 50 | 
75 | AGTGTAAGCTGAGAGT (sugars k3 d10 k3, PS) | 71 | 
76 | AGTTAATAGGACTAAA (sugars k3 d10 k3, PS) | 13 | 
77 | AGTTAGGGAGCCAGCG (sugars k3 d10 k3, PS) | 38 | 
78 | AGTTATTAGAAGTCAG (sugars k3 d1 m1 d8 k3, PS) | 25 | 
79 | AGTTTAGATTGCATAA (sugars k3 d10 k3, PS) | 50 | 
80 | AGTTTTGGGACCAATA (sugars k3 d10 k3, PS) | 31 | 
81 | AGTTTTTAAGAGGCAT (sugars k3 d10 k3, PS) | 75 | 
82 | ATAAAAATCGCTGCTT (sugars k3 d10 k3, PS) | 11 | 
83 | ATAAAGCTTTGCAGCA (sugars k3 d10 k3, PS) | 54 | 
84 | ATAACATGGCTGGCAT (sugars k3 d10 k3, PS) | 14 | 
85 | ATAACTACAAGAGGTT (sugars k3 d9 k3 e1, PS) | 67 | 
86 | ATAACTACAAGAGGTT (sugars k3 d10 k3, PS) | 64 | 
87 | ATAAGAGCCAAACTGC (sugars k3 d10 k3, PS) | 49 | 
